# Measured values reported in US5691310A, “Methods of treatment using proANF peptides” (priority 1995, dated 1997).
# Experiments:
# [1] = tested on: renal medullary Na+-K+-ATPase; assay: inhibition of renal medullary Na+-K+-ATPase activity; format: biochemical; settings: 10^-11 M
# [2] = overcoming the negative ionotropic effect of Verapamil
# Munich-Wistar rats = assay: rat clearance model (diuresis and salt excretion); format: in vivo
# Procedure: The same three peptides and ANF from Example I are tested using the rat clearance model. Six control rats and six experimental Munich-Wistar rats, each weighing 150-200 grams, are used for each peptide, with catheters being placed in both jugular veins and in the femoral artery. The ureters are cannulated for simultaneous urine collections with femoral artery blood collections.
# After inserting the catheters, a stabilization of one hour is allowed. A 10 μg/kg bolus of each of the respective human sequences of the peptides is given via the jugular vein to six experimental rats followed by a sustaining infusion of 0.1 μg/kg/min for 60 minutes. Blood and urine samples are collected at 20 minute intervals during this 60 minute infusion. In both the control and experimental animals, hematocrits and plasma sodium values remained at the same levels pre- and post-infusion while blood pressure decreased with each of these peptides (see Attachment B).
# [3] = tested on: particulate guanylate cyclase; assay: particulate guanylate cyclase activity in the kidney; format: biochemical; settings: 1 μM; whole kidney homogenates, renal cortical and medullary membranes, isolated distal nephron
# Procedure: Testing is also carried out to determine biologic effects of these peptides by measuring their effects on particulate guanylate activity in the kidney.
# porcine aorta = assay: vasodilation of porcine aortic strips preconstricted with 0.3 micromolar phenylephrine; parameters: species or system pig
# Procedure: 30 Kg pigs are sacrificed, and aortic strips are harvested. The strips are attached to F-60 transducer (Narco-BioSystems, Houston, Tex.) and attached to a physiography (Narco-BioSystems) while being submerged in a muscle tissue bath comprising a Krebs Ringer solution at 37° C., with 95% 02 -5% CO2, bubbled through the bath. Percentage vasodilation is measured versus time (as reported in FIG. 1) after preconstriction with 0.3 micromolar phenylephrine.
# [4] = tested on: particulate guanylate cyclase; assay: cyclic GMP / particulate guanylate cyclase activation in cultured smooth muscle cells and porcine aorta; format: cell-based; settings: cultured smooth muscle cells
# [5] = tested on: human subjects with class II New York Heart Association congestive heart failure; assay: infusion into human subjects with congestive heart failure; format: in vivo
# Procedure: Human proANF's 1-30, 31-67, 79-98, and 99-126 (i.e., ANF) were infused into human subjects with class II New York Heart Association congestive heart failure. An identical protocol to that used in example V where these peptides were infused into healthy human subjects was utilized. (See Attachment C for a detailed description of this protocol). The human subjects with congestive heart failure received an identical dose (0.1 μg/kg body wt/minute for 60 minutes) that the healthy human subjects received.
# [6] = tested on: rats who have acute renal failure; assay: blood urea nitrogen in rats with acute renal failure; format: in vivo, rat; settings: over three days
# From the text: FIG. 6. ProANF 31-67 (i.e., vessel dilator) prevents the rise in blood urea nitrogen (BUN) in rats who have acute renal failure.
# healthy human subjects = assay: infusion into healthy human subjects; format: in vivo; settings: healthy humans
# Procedure: Infusion of these peptides into healthy human subjects was performed as follows: Human pro-ANF 1-30, pro-ANF 31-67, and pro-ANF 79-98, and hANF (i.e., pro-ANF […], were synthesized by Peninsula Laboratories (Belmont, Calif.). High pressure liquid chromatography (HPLC) analysis was performed on a sample of each of the four peptides to ensure purity. The peptides were dissolved in a sterile 0.9% saline solution to a concentration of 100 μg/ml and dispensed in 2 and 5 ml aliquots into sealed sterile vials. At the time of dispensing, randomly selected vials were tested for pyrogens and sterility. Prior to labeling the vials, the actual peptide content of the dispensed solution were determined by direct radioimmunoassay to account for any possible absorption of the respective peptides to the walls of the vials. All vials were then stored at -80° C. until thawed for individual study.
# Normal healthy subjects were chosen on the basis of age (between 20 and 50 years), physical examination and biochemical screenings. The subjects consumed their normal diets prior to testing. The subjects fasted overnight and were tested in the morning in the seated position. Intravenous catheters were placed bilaterally for the administration of pro-hANF 1-30, pro-hANF 31-67, pro-hANF 79-98 and hANF [pro-hANF 99-126] and for blood sampling. After completion of a 45-minute equilibration period, there were three 60-minute phases of the study: baseline, experimental infusion (60 minutes) and recovery (3 hours). The baseline phase consisted of two 30 minute urine collection periods, the experimental phase consisted of three 20 minute urine and plasma collection periods, and the recovery phase consisted of two 30 minute urine and plasma collection periods each hour for three hours post-infusion. Urine output was replaced on a milliliter per milliliter basis throughout the study by administering oral water or orange juice. Urine samples were obtained by voiding at the designated collection periods.
# The 36 subjects were divided into 6 groups. One group (i.e., the control group) received a placebo infusion of 0.9% sodium chloride during the experimental infusion phase. […] The four remaining groups of six subjects each received human pro-hANF 1-30, pro-hANF 31-67, pro-hANF 79-98 and hANF. The four groups received the peptides by continuous infusion at the rate of 0.1 μg/kg per minute. The volume administered per hour during the experimental infusion phase was 10 ml for all four peptides and the placebo. All infusions were given by a constant-rate infusion pump, with the final concentrations of prohANFs adjusted for the subjects' body weight. The subjects heart rate and cuff blood pressure were taken at 5 minute intervals throughout the study. The excreted urine was analyzed for sodium concentration.
# [7] = congestive heart failure, 0.1 μg/kg body wt/minute
substance,measurement,setting,value
"H-EVVPPQVLSEPNEEAGAALSPLPEVPPWTGEVSPAQR-OH [proANF 31-67, H-Glu-Val-Val-Pro-Pro-Gln-Val-Leu-Ser-Glu-Pro-Asn-Glu-Glu-Ala-Gly-Ala-Ala- Leu-Ser-Pro-Leu-Pro-Glu-Val-Pro-Pro-Trp-Thr-Gly-Glu-Val-Ser-Pro-Ala-Gln-Arg-OH]",inhibition of renal medullary Na+-K+-ATPase activity,[1],Inhibition of renal medullary Na+-K+-ATPase activity
same,negative ionotropic (slowing heartbeat) effect of Verapamil,[2],can overcome the negative ionotropic (slowing heartbeat) effect
same,"UNa V, urinary sodium excretion rate","Munich-Wistar rats; period A, control period (before peptide)",144.08 ± 56.75 μeq-min^-1 -g kidney wt^-1
same,"UNa V, urinary sodium excretion rate","Munich-Wistar rats; period B, 1st 60min experimental period, 10 μg/kg bolus then 0.1 μg/kg/min","1,057.68 ± 371.69 μeq-min^-1 -g kidney wt^-1"
same,"UNa V, urinary sodium excretion rate","Munich-Wistar rats; period C, 2nd 60min experimental period","1,077.63 ± 306.10 μeq-min^-1 -g kidney wt^-1"
same,particulate guanylate cyclase activity,[3],enhance particulate guanylate cyclase
same,increase in cyclic GMP levels over baseline levels,porcine aorta; associated with vasodilation of porcine aorta,four-to-five
same,vasodilation,porcine aorta; porcine aorta,cause vasodilation
same,cyclic GMP levels,[4],increase cyclic GMP levels
same,urine output at 3 hours after stopping the infusion relative to pre-infusion values,[5]; congestive heart failure,10 fold
same,diuretic properties (in words),[5]; congestive heart failure patients,stronger diuretic properties than ANF
same,urine output in 20 minutes of infusion,[5]; [7],doubled
same,urine output increase at the end of the 60 minute infusion,[5]; [7],7 fold
same,urine output per 30 minute period,"[5]; congestive heart failure, 3 hours after stopping the infusion (pre-infusion 30 mls)",320 mls
same,increase of sodium excretion,[5]; human subjects with congestive heart failure,three-to-eight
same,time after stopping the infusion for which diuresis / urine flow is still significantly (P<0.01) elevated,[5]; humans with congestive heart failure,at least 3 hours
same,rise in blood urea nitrogen (BUN),[6],completely blocked the increase in BUN
same,increase of urine flow,healthy human subjects,4-12 fold
same,urine volume / urine flow (in words),healthy human subjects; 100 ng/kg body wt per minute for 1 hour i.v.,increase in urine volume
same,sodium excretion compared to baseline (in words),healthy human subjects; 100 ng/kg body wt per minute for 60 minutes,significantly (P<0.05) increased sodium excretion
same,systolic and diastolic blood pressures,healthy human subjects; 100 ng/kg/min i.v. for 60 minutes,decreasing systolic and diastolic blood pressures
